Data: paper PMC6112376, “Comprehensive Analyses and Prioritization of Tox21 10K Chemicals Affecting Mitochondrial Function by in-Depth Mechanistic Studies” (Environmental Health Perspectives, 2018)
Structures can show the parent of a compound that is named as a salt. Where two headings read alike, the source gives them in different places.

How the values were obtained:
[1] = system: HepG2 cells; assay: cells; conditions: Homo sapiens; for Emax: HepG2, read-out: MMP assays efficacy (%) HepG2
[2] = system: rat primary hepatocytes; assay: MMP assay in rat primary hepatocytes; conditions: for IC50: Rattus norvegicus, Hepatocyte; for MMP assays efficacy (%) Rat Hepatocytes / MMP assays IC50 (µM) Rat Hepatocytes: mean ± SD of three experiments
[3] = system: HepG2 cells; conditions: cited from earlier work
[4] = HepG2, read-out: MMP assays IC50 (µM) HepG2
[5] = read-out: MMP assays IC50 (µM) Rat Hepatocytes
[6] = read-out: MMP assays IC50 (µM) qHTS-HepG2
[7] = read-out: MMP assays IC50 (µM), qHTS-HepG2

Row | Structure (SMILES) | IC50 [1, 4] [µM] | Emax [1] [%] | IC50 [2, 5] [µM] | MMP assays efficacy (%) Rat Hepatocytes [2] | MMP assays efficacy (%) qHTS-HepG2 [3] [%] | IC50 [3, 6] [µM] | IC50 [3, 7] [µM] | MMP assays IC50 (µM) Rat Hepatocytes [2] | IC50 ([1]; HepG2, read-out: IC50 in HepG2 cells (MMP, tier-one retest)) [µM] | IC50 ([2]; 1 h, read-out: IC50 in rat primary hepatocytes (MMP, tier-one retest)) [µM]
1 | COCCOC(=O)C1=C(C)NC(C)=C(C(=O)OC/C=C/c2ccccc2)C1c1cccc([N+](=O)[O-])c1 (stereo not drawn) [Cilnidipine] | 12.3 | 109 | 14.8 ± 8.07 | -75±17% | -104±6 | 12.5 ± 1.78 |  |  |  | 
2 | O=C(Nc1ncc([N+](=O)[O-])s1)c1cccs1 [Tenonitrozole] | 0.56 | 99 | 0.68 ± 0.45 |  | -95±3 |  | 0.73 ± 0.12 |  |  | 
3 | COC(=O)C1=C(C)NC(C)=C(C(=O)OC(C)(C)CN(C)CCC(c2ccccc2)c2ccccc2)C1c1cccc([N+](=O)[O-])c1 (stereo not drawn) [Lercanidipine hydrochloride] |  | 117 | 27.5 | -77±16% | -83±7 |  | 6.53 ± 0.53 |  |  | 
4 | CCC(=O)O[C@]1(C(=O)CCl)[C@@H](C)C[C@H]2[C@@H]3C[C@H](F)C4=CC(=O)C=C[C@]4(C)[C@@]3(F)[C@@H](O)C[C@@]21C [Halobetasol propionate] | 13.8 | 127 | 25.2 ± 7.02 | -82±13% | -106±7 |  | 15.2 ± 5.52 |  |  | 
5 | CC(C)(C)C1=CC(=O)C=C(C(C)(C)C)C1=O | 39.8 | 80 |  | inactive | -73±22 | 18.6 ± 12.4 |  | inactive |  | 
6 | CC1=NN(c2ccccc2)C(=O)C1 [Compound 1-Phenyl-3-methyl-5-pyrazolone] | 28.2 | 82 | 25.8 ± 10.1 | -62±9% | -121±16 | 31.8 ± 4.28 |  |  |  | 
7 | Cc1ccc2c(Cl)cc(Cl)c(O)c2n1 [5,7-Dichloro-8-hydroxy-2-methylquinoline] | 1.38 | 60 |  | inactive | -120±20 | 11 ± 2 |  | inactive |  | 
8 | CSc1nc2cc(Cl)c(Oc3cccc(Cl)c3Cl)cc2[nH]1 [Triclabendazole] | 5.48 | 97 | 15.6 ± 2.52 | -91±10% | -114±15 |  | 1.84 ± 0.15 |  |  | 
9 | Nc1cc([N+](=O)[O-])ccc1C(=O)O [4-Nitroanthranilic acid] | 17.8 | 51 |  | inactive | -62±14 | 38.6 ± 17.2 |  | inactive |  | 
10 | COc1ccc(C(=O)c2ccc(OC)cc2O)c(O)c1 | 12.6 | 109 | 29.8 ± 13.8 | -58±4% | -95±11 | 7.75 ± 1.8 |  |  |  | 
11 | Oc1c2ccccc2c2c3c(cccc13)N=N2 [SP600125] | 1.55 | 105 | 21.1 ± 2.91 | -82±45% | -97±10 |  | 0.92 ± 0.14 |  |  | 
12 | CC(C)OC(=O)C(C(=O)OC(C)C)=C1SC=CS1 [Malotilate] | 39.8 | 79 | 23.9 ± 29.3 | -106±108% | -82±14 |  | 15 ± 1.99 |  |  | 
13 | Cc1cccc(Nc2ccccc2)c1 [Compound 3-Methyl-N-phenylaniline] | 28.2 | 66 | 35.5 | -74±25% | -93±25 | 48.6 ± 5.61 |  |  |  | 
14 | Nc1ccc2c(O)cc(S(=O)(=O)O)cc2c1 | 39.8 | 40 |  | inactive | -55±5 | 27.3 ± 3.73 |  | inactive |  | 
15 | Cc1ccc2c(c1)C(=O)c1ccccc1C2=O [Compound 2-Methylanthraquinone] | 11.2 | 51 | 5.97 ± 0.49 | -36±2% | -77±13 | 6.33 ± 1.15 |  |  |  | 
16 | N#CSCSc1nc2ccccc2s1 [2-(Thiocyanomethylthio)benzothiazole] | 56.2 | 73 | 30.5 ± 26.4 | -136±65% | -85±16 | 33.1 ± 4.58 |  |  |  | 
17 | CCOC1O[C@H]([C@@H](COCc2ccccc2)OCc2ccccc2)[C@H](OCc2ccccc2)[C@H]1O (stereo partly drawn) [Tribenoside] | 11.7 | 61 |  | inactive | -114±21 |  | 11.8 ± 0.8 | inactive |  | 
18 | O=C1c2ccccc2C(=O)C1(O)O [Ninhydrin] | 56.2 | 85 |  | inactive | -86±19 |  | 32 ± 9.69 | inactive |  | 
19 | CNc1ncnc2nc[nH]c12 [(N-6)-Methyladenine] | 6.31 | 56 |  | inactive | -65±7 | 5.98 ± 5.84 |  | inactive |  | 
20 | O=C1OC(=O)c2cccc3cccc1c23 [1H,3H-Naphtho(1,8-cd)pyran-1,3-dione] | 7.94 | 63 |  | inactive | -51±8 | 3.89 ± 1.12 |  | inactive |  | 
21 | Cc1ccc2c(Br)cc(Br)c(O)c2n1 [Broquinaldol] | 12.6 | 114 | 38.6 ± 34.6 | -87±93% | -114±44 | 26.6 ± 4 |  |  |  | 
22 | O=C(Nc1cccc(C(F)(F)F)c1)c1cc(Br)cc(Br)c1O [fluorosalan] |  | 100 |  | -74±9% | -104±5 |  | 0.24 ± 0.09 |  | 0.19 | 0.42
23 | O=C(c1ccccc1)c1ccc(O)cc1 [Compound 4-Hydroxybenzophenone] | 28.2 | 116 | 17.8 ± 28 | -82±39% | -87±12 | 41.3 ± 18.1 |  |  |  | 
24 | CCCCCCCCCCCCCC[n+]1ccccc1 [Tetradecylpyridinium bromide] | 17.8 | 102 | 33.5 ± 2.73 | -99±17% | -76±21 |  | 22.5 ± 4.1 |  |  | 
25 | CC(C)(C)c1ccc(O)c(C(C)(C)C)c1 [2,4-Di-tert-butylphenol] | 3.98 | 101 | 24 ± 16.6 | -131±66% | -95±5 | 3.5 ± 0.73 |  |  |  | 
26 | CC(C)C(=O)OCC(=O)[C@@]12O[C@H](C3CCCCC3)O[C@@H]1C[C@H]1[C@@H]3CCC4=CC(=O)C=C[C@]4(C)[C@H]3[C@@H](O)C[C@@]12C [Ciclesonide] | 15.5 | 103 |  | inactive |  | 7.91 ± 1.38 |  | inactive |  | 
27 | ON=C1C=CC(=NO)C=C1 [p-Benzoquinone dioxime] | 25.1 | 58 |  | inactive | -71±6 |  | 43.3 ± 14.9 | inactive |  | 
